Experimental data from PubChem BioAssay (NCI).
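Exposure lasted 48 hours, with cells grown in 96-well plates and compounds tested at five concentrations. Abbreviation: GI50, concentration required for 50% inhibition of growth. TGI is the concentration that stops growth completely.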

Experiments:
Experiment in all cases: growth of human tumour cells (NCI), 48 h
MDA-MB-231 breast = test system: MDA-MB-231 breast
NCI-H522 lung = test system: NCI-H522 lung
NCI-H23 lung = test system: NCI-H23 lung
OVCAR-4 ovarian = test system: OVCAR-4 ovarian
NCI/ADR-RES ovarian = test system: NCI/ADR-RES ovarian
UACC-257 melanoma = test system: UACC-257 melanoma
COLO 205 colon = test system: COLO 205 colon
LOX IMVI melanoma = test system: LOX IMVI melanoma

SMILES	GI50 (MDA-MB-231 breast)	TGI (MDA-MB-231 breast)	GI50 (NCI-H522 lung)	TGI (NCI-H522 lung)	GI50 (NCI-H23 lung)	TGI (NCI-H23 lung)	GI50 (OVCAR-4 ovarian)	TGI (OVCAR-4 ovarian)	GI50 (NCI/ADR-RES ovarian)	TGI (NCI/ADR-RES ovarian)	GI50 (UACC-257 melanoma)	TGI (UACC-257 melanoma)	GI50 (COLO 205 colon)	TGI (COLO 205 colon)	GI50 (LOX IMVI melanoma)	TGI (LOX IMVI melanoma)
O=c1cc(-c2ccccc2)oc2ccc(OC/C(=N/O)c3ccc(F)cc3)cc12	6.16 µM	27.2 µM	4.68 µM	> 50 µM	5.43 µM	38.4 µM	25.3 µM	> 50 µM	2.97 µM	12.8 µM	9.77 µM	38.2 µM	2.23 µM	8.19 µM	5.46 µM	12.3 µM
CCCCCCCCCCCC[N+](C)(C)Cc1ccccc1	1.62 µM	3.81 µM	1.53 µM	3.95 µM	2.5 µM	10.2 µM	1.82 µM	7.68 µM	41.9 µM	> 100 µM	1.82 µM	4.25 µM	1.65 µM	3.34 µM		
C=C1C(=O)O[C@H]2[C@H]1CC/C(COC(=O)c1cn(C)c3ccccc13)=C\CC[C@@]1(C)O[C@@H]21	1.05 µM	2.47 µM	0.399 µM	1.62 µM	1.93 µM	4.92 µM	1.14 µM	3.04 µM	2.15 µM	14.2 µM	1.32 µM	2.65 µM	1.24 µM	2.59 µM	0.228 µM	0.81 µM
CCNc1cc2oc(=O)cc(C(F)(F)F)c2cc1C		> 100 µM		> 100 µM		> 100 µM		> 100 µM		> 100 µM		> 100 µM		> 100 µM		> 100 µM
Cc1cc(C(=O)Nc2cc(Oc3ccc4nc(NC(=O)C5CC5)cn4n3)ccc2C)n(C)n1	> 10 µM	> 10 µM	> 10 µM	> 10 µM	> 10 µM	> 10 µM	> 10 µM	> 10 µM	> 10 µM	> 10 µM	> 10 µM	> 10 µM	> 10 µM	> 10 µM	> 10 µM	> 10 µM
O=C(O)/C=C/c1ccc[c]([Sb](=[O])([OH])[OH])c1	> 100 µM	> 100 µM	> 100 µM	> 100 µM	> 100 µM	> 100 µM	> 100 µM	> 100 µM	> 100 µM	> 100 µM	> 100 µM	> 100 µM			> 100 µM	> 100 µM
COc1cc(-c2nn(-c3cccc(NC(=O)NCCNS(=O)(=O)c4ccc(Cl)cc4)c3)cc2-c2ccncc2)ccc1Cl	1.51 µM	4.38 µM	0.311 µM	1.35 µM	1.21 µM	8.79 µM	1.03 µM	92 µM	22.7 µM	> 100 µM	0.541 µM	3.34 µM			0.559 µM	2.46 µM
CCN(CC)CCCOc1ccc2ncnc(Nc3ccc(Oc4cccc(C(F)(F)F)c4)c(Cl)c3)c2c1	1.79 µM	3.24 µM			1.56 µM	3.05 µM	1.54 µM	2.99 µM							1.63 µM	3.06 µM
CC(=Nc1ccccc1)C1=C(O)C(Cc2cccc(F)c2)NC1=O (configuration not stated)	0.178 µM	1.93 µM	0.0286 µM	0.182 µM	0.101 µM	> 100 µM	0.345 µM	> 100 µM	0.0348 µM	0.186 µM			0.035 µM	0.141 µM	0.0667 µM	> 100 µM
O=C1NC(=O)C(=Cc2c3ccccc3cc3ccccc23)C(=O)N1				> 100 µM		> 100 µM								> 100 µM		> 100 µM
COc1ccc(-c2nsc3c2NC(=O)CC3c2ccc3c(c2)OCCO3)cc1 (configuration not stated)	1.59 µM	> 100 µM	0.551 µM	> 100 µM	1.38 µM	> 100 µM	2.86 µM	> 100 µM			0.981 µM	> 100 µM	0.431 µM	2.18 µM	0.601 µM	> 100 µM
COc1cc(OC)cc(-c2nc3sccn3c2/C=N/N=C(N)N)c1	6.91 µM	13.6 µM	15.4 µM	> 50 µM	7.9 µM	15.6 µM			26.4 µM	> 50 µM	7.74 µM	16.1 µM	3.11 µM	15.8 µM	6.49 µM	12.8 µM
Cc1c(NC(=O)CCl)c(=O)oc2c(C)c3occc(=O)c3cc12								25.6 µM		60.8 µM		34 µM		40 µM		
CCC[CH2][Sn]([CH2]CCC)([CH2]CCC)[O]C(=O)C(OC(C)=O)c1ccccc1 (configuration not stated)			0.144 µM	0.287 µM	0.131 µM	0.262 µM	0.103 µM	0.221 µM			0.149 µM	0.284 µM	0.18 µM	0.321 µM	0.107 µM	0.23 µM
O=C1CSC(c2ccc(-c3nc4ccccc4[nH]3)cc2)=N1	> 50 µM	> 50 µM	37.3 µM	> 50 µM	47.4 µM	> 50 µM			> 50 µM	> 50 µM	20.3 µM	> 50 µM	> 50 µM	> 50 µM	15.7 µM	> 50 µM
